# Results: patent US9828378B2, “Kinase inhibitors and methods of use” (Intellikine LLC, priority 2008, dated 2017)
# Read-outs that look alike come from different tables or passages of the source.
# Columns and labels:
# [1] = biological target: mTORC (Homo sapiens (Human), UniProt P42345); assay: mTOR kinase inhibition assay; format: biochemical; settings: Table 1; read-out: mTORC IC50
# [2] = biological target: PI3K α (Homo sapiens (Human), UniProt P42336); assay: PI3K α inhibition assay; format: biochemical; settings: Table 1; read-out: PI3K α IC50
# Chain of PI3K α (P42336 whole entry): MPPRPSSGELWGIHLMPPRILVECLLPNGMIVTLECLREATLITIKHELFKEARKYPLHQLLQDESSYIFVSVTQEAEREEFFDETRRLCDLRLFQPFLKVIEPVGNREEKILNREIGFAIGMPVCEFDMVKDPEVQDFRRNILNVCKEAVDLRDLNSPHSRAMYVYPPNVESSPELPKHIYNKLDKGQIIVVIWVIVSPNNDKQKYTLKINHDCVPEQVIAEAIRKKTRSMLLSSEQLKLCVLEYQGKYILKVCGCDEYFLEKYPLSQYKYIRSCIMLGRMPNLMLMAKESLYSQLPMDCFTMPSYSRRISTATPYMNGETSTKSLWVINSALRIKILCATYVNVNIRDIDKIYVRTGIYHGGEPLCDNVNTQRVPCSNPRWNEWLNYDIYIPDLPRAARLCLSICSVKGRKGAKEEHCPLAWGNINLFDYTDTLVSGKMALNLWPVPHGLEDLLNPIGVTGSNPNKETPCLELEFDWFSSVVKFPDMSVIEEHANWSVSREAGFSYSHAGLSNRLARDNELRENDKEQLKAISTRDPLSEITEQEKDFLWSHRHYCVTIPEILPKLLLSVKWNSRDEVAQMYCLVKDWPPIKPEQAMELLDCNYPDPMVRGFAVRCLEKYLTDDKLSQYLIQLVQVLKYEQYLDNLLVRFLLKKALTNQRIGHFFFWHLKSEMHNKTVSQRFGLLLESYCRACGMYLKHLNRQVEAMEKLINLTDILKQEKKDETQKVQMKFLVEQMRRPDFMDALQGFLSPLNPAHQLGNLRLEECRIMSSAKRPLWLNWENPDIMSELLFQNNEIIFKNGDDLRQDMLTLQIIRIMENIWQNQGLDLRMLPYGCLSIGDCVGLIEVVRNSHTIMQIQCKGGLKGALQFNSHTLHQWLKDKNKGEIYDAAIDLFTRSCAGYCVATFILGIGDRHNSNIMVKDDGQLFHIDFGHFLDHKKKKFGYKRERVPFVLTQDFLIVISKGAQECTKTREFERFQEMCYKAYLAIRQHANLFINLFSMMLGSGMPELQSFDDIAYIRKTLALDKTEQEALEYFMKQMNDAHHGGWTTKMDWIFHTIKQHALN
# Chain of PI3K α (P27986 whole entry partner): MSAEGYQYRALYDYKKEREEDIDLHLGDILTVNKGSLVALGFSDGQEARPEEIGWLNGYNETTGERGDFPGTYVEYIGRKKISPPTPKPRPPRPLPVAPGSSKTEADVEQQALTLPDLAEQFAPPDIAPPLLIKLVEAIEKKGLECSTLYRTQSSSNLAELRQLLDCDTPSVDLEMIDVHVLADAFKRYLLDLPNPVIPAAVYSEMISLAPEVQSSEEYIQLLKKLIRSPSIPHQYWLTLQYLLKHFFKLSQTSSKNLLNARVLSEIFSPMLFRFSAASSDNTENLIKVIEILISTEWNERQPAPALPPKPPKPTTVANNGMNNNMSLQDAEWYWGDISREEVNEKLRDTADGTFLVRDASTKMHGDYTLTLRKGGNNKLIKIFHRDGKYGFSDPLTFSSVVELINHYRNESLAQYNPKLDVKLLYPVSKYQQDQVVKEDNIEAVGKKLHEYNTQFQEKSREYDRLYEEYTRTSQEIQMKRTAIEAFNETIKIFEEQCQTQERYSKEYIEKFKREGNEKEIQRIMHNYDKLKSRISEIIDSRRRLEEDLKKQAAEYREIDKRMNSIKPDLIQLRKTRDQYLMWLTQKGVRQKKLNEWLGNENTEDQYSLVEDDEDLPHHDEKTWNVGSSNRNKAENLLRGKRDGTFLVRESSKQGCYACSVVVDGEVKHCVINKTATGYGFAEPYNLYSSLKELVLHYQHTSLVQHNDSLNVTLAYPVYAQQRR
# [3] = biological target: PI3K γ (Homo sapiens (Human), UniProt P48736); assay: PI3K γ inhibition assay; format: biochemical; settings: Table 1; read-out: PI3K γ IC50
# Chain of PI3K γ (P48736 whole entry): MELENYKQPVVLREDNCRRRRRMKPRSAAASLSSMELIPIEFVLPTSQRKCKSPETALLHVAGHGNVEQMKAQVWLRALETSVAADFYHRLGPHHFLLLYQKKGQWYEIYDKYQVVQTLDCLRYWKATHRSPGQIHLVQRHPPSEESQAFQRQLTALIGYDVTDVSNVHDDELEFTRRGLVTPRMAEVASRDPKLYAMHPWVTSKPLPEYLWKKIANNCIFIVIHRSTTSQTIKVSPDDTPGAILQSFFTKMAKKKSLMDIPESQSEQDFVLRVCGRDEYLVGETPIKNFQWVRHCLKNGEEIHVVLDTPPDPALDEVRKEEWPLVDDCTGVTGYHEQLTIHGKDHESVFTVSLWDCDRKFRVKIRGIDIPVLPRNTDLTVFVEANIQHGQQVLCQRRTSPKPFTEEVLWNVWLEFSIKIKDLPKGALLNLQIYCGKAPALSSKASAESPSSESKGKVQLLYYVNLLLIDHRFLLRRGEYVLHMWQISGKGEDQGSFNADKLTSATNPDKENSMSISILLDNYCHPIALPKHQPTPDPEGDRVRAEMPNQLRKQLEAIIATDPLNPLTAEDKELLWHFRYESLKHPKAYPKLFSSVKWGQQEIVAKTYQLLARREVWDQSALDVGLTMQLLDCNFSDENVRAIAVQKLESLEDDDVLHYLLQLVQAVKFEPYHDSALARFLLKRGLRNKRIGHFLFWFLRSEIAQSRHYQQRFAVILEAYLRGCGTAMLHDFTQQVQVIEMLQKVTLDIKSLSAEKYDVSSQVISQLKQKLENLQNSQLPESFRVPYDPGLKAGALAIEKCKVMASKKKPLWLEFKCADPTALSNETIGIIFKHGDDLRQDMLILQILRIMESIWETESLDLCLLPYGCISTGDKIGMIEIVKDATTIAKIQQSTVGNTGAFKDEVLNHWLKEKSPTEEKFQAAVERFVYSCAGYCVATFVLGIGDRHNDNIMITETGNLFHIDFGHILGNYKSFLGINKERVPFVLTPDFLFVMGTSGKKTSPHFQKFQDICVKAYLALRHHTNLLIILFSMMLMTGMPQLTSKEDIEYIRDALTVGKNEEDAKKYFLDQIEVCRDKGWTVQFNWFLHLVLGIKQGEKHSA
# [4] = biological target: PI3K δ (Homo sapiens (Human), UniProt O00329); assay: PI3K δ inhibition assay; format: biochemical; settings: Table 1; read-out: PI3K δ IC50
# Chain of PI3K δ (O00329 whole entry): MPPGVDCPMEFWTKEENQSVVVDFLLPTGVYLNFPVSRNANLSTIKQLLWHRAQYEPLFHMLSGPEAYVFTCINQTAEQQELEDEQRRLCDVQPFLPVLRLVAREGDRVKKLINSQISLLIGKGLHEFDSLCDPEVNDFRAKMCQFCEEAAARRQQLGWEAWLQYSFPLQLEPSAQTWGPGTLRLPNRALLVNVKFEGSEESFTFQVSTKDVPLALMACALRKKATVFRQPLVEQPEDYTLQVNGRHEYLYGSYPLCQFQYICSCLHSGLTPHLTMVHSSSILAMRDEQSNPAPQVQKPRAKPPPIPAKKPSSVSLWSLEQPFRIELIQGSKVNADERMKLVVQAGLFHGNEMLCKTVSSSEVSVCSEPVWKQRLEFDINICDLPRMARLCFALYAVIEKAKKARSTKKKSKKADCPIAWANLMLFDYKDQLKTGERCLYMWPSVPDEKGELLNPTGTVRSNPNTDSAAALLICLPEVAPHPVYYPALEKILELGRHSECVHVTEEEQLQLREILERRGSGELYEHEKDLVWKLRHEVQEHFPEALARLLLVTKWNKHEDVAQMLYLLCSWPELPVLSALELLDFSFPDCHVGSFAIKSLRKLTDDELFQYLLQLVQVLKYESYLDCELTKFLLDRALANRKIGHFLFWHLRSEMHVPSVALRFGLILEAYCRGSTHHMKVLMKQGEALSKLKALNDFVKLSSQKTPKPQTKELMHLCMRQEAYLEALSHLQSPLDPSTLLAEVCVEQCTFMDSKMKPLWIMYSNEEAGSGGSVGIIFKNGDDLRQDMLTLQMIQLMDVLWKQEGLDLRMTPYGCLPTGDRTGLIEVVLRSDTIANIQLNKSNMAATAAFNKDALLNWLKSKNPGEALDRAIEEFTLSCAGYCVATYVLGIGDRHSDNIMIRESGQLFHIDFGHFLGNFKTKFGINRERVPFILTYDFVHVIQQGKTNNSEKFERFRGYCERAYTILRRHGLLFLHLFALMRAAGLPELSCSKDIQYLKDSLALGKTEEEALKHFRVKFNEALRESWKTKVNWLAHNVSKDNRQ
# Chain of PI3K δ (P27986 whole entry partner): as the sequence (P27986 whole entry partner) above
# [5] = biological target: PI3K β (Homo sapiens (Human), UniProt P42338); assay: PI3K β inhibition assay; format: biochemical
# Chain of PI3K β (P42338 whole entry): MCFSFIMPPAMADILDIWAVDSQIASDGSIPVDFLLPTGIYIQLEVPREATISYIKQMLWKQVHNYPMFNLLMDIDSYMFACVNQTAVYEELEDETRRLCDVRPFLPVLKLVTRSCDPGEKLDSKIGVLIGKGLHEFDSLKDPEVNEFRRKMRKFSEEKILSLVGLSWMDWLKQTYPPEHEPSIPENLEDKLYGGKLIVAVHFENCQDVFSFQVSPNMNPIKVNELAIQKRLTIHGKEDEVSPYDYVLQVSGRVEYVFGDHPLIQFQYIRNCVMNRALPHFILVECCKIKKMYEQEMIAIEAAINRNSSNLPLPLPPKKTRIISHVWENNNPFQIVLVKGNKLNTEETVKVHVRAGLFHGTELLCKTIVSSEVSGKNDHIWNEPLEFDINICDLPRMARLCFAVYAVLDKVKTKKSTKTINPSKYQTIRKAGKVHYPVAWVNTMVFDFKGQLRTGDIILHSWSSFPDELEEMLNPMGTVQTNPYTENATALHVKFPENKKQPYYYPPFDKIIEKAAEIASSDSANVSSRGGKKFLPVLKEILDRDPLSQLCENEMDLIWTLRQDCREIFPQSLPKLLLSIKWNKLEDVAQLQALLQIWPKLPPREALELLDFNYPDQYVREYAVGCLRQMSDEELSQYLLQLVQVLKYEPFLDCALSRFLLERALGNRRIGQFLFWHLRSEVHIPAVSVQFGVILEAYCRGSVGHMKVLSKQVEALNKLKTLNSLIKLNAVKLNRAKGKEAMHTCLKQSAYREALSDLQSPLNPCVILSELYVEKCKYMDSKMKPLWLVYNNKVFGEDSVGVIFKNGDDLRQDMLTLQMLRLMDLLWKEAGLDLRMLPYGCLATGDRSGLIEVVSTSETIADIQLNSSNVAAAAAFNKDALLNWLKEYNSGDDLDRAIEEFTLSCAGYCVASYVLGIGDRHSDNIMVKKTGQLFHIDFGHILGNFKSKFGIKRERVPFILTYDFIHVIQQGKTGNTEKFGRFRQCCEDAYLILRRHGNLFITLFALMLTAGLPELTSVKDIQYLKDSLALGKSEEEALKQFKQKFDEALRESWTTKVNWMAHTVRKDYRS
# Chain of PI3K β (P27986 whole entry partner): as the sequence (P27986 whole entry partner) above
# [6] = control compounds, 5 μM; cited from earlier work
IC50 [5] [µM],Compound,IC50 [1] [µM],IC50 [2] [µM],IC50 [3] [µM],IC50 [4] [µM],"IC50 ([5]; Table 1, read-out: PI3K β IC50) [µM]",plasma stability [6]
–,Nc1ncnc2c1c(-c1cc3cc(O)ccc3[nH]1)nn2CC(=O)N1CCOCC1 [Compound 34],> 0.5,> 0.5,> 0.5,> 0.5,–,–
–,CC(=O)N1CCC(n2nc(-c3cc4cc(O)ccc4[nH]3)c3c(N)ncnc32)CC1 [Compound 30],< 0.025,> 0.5,–,> 0.5,> 0.5,–
–,CC(C)N1CCC(n2nc(-c3cc4cccc(O)c4[nH]3)c3c(N)ncnc32)CC1 [Compound 64],< 0.025,> 0.5,< 0.5,< 0.5,> 0.5,–
–,Cc1nccn1CCn1nc(-c2cc3cc(O)ccc3[nH]2)c2c(N)ncnc21 [Compound 44],< 0.1,> 0.5,–,> 0.5,> 0.5,–
–,Nc1ncnc2c1c(-c1cc3cc(O)ccc3[nH]1)nn2CCN1CCOCC1 [Compound 33],< 0.5,> 0.5,> 0.5,> 0.5,–,–
–,CC(C)n1nc(-c2cc3c(O)cccc3[nH]2)c2c(N)ncnc21 [Compound 37],> 0.5,< 0.5,< 0.5,< 0.5,–,–
–,CC(=O)N1CCC(n2nc(-c3cc4cc(O)cc(Cl)c4[nH]3)c3c(N)ncnc32)CC1 [Compound 70],< 0.005,< 0.5,< 0.1,< 0.025,> 0.5,–
–,Nc1ncnc2c1c(-c1cc3cccc(O)c3[nH]1)nn2C1CCN(C(=O)C2CC2)CC1 [Compound 41],< 0.01,> 0.5,< 0.05,> 0.5,> 0.5,–
–,CCCOc1cc(N)ccc1C(=O)OCCN(CC)CC [propoxycaine],–,–,–,–,–,low plasma stability
–,CC(C)N1CCC(n2nc(-c3cc4c(Cl)ccc(O)c4[nH]3)c3c(N)ncnc32)CC1 [Compound 71],< 0.1,> 0.5,> 0.5,> 0.5,> 0.5,–
–,CC(C)n1nc(-c2cc3c(Cl)ccc(O)c3[nH]2)c2c(N)ncnc21 [Compound 39],< 0.01,> 0.5,> 0.5,> 0.5,–,–
≤ 0.05,CNC(=O)Nc1nc2ccc(-c3cn(C(C)C)c4ncnc(N)c34)cc2s1 [Compound 22],–,–,–,–,–,–
–,Nc1ncnc2c1c(-c1cc3cc(O)ccc3[nH]1)nn2C1CCC1 [Compound 27],< 0.025,–,–,–,–,–
–,Nc1ncnc2c1c(-c1cc3cc(O)ccc3[nH]1)nn2C1CCOCC1 [Compound 42],< 0.005,> 0.5,–,< 0.1,> 0.5,–
–,CC(C)n1nc(-c2cc3cc(O)ccc3[nH]2)c2c(N)nccc21 [Compound 45],> 0.5,–,–,–,–,–
–,CC(C)n1nc(-c2cc3cc(O)c(Cl)cc3[nH]2)c2c(N)ncnc21 [Compound 32],< 0.5,> 0.5,> 0.5,> 0.5,–,–
–,COc1ccc2cc(-c3nn(C4CCOCC4)c4ncnc(N)c34)[nH]c2c1 [Compound 59],> 0.5,> 0.5,> 0.5,–,> 0.5,–
–,Nc1ncnc2c1c(-c1cc3cc(O)cc(Cl)c3[nH]1)nn2C1CCOCC1 [Compound 68],< 0.005,< 0.5,< 0.05,< 0.025,> 0.5,–
–,Nc1ncnc2c1c(-c1cc3cc(O)ccc3[nH]1)nn2C1CCN(C(=O)C2CC2)CC1 [Compound 31],< 0.025,> 0.5,–,< 0.5,> 0.5,–
–,COCCn1nc(-c2cc3cc(O)ccc3[nH]2)c2c(N)ncnc21 [Compound 40],< 0.1,> 0.5,> 0.5,> 0.5,–,–
–,Nc1ncnc2c1c(-c1cc3cc(O)ccc3[nH]1)nn2C1CC(N2CCOCC2)C1 (stereo not drawn) [Compound 49],< 0.01,> 0.5,< 0.5,< 0.5,> 0.5,–
–,Nc1ncnc2c1c(-c1cc3cccc(O)c3[nH]1)nn2C1CCOCC1 [Compound 62],< 0.005,> 0.5,> 0.5,< 0.1,> 0.5,–
–,Nc1ncnc2c1c(-c1cc3cccc(O)c3[nH]1)nn2C1CCCC1 [Compound 36],< 0.01,> 0.5,< 0.1,< 0.5,–,–
–,COc1cc(Cl)c2[nH]c(-c3nn(C4CCOCC4)c4ncnc(N)c34)cc2c1 [Compound 67],> 0.5,> 0.5,> 0.5,> 0.5,> 0.5,–
–,CC(C)N1CCC(n2nc(-c3cc4cc(O)cc(Cl)c4[nH]3)c3c(N)ncnc32)CC1 [Compound 56],> 0.5,> 0.5,> 0.5,–,> 0.5,–

IC50 [5] [µM],Compound,IC50 [1] [µM],IC50 [2] [µM],IC50 [3] [µM],IC50 [4] [µM],"IC50 ([5]; Table 1, read-out: PI3K β IC50) [µM]",plasma stability [6]
–,CNC(=O)CCn1nc(-c2cc3cc(O)ccc3[nH]2)c2c(N)ncnc21 [Compound 43],> 0.5,> 0.5,–,> 0.5,> 0.5,–
–,COc1cc2cc(-c3nn(C(C)C)c4ncnc(N)c34)[nH]c2cc1Cl [Compound 29],> 0.5,–,–,–,–,–
–,CC(=O)N1CCC(n2nc(-c3cc4c(Cl)ccc(O)c4[nH]3)c3c(N)ncnc32)CC1 [Compound 69],< 0.005,> 0.5,> 0.5,< 0.5,> 0.5,–
–,COc1cccc2cc(-c3nn(C4CCOCC4)c4ncnc(N)c34)[nH]c12 [Compound 63],< 0.005,< 0.5,< 0.025,< 0.025,> 0.5,–
–,CNC(=O)Cn1nc(-c2cc3cc(O)ccc3[nH]2)c2c(N)ncnc21 [Compound 35],> 0.5,> 0.5,> 0.5,> 0.5,–,–
–,CC(C)n1nc(-c2cc3ccc(C#N)cc3[nH]2)c2c(N)ncnc21 [Compound 24],> 0.5,> 0.5,–,–,–,–
–,Nc1ncnc2c1c(-c1cc3cc(O)ccc3[nH]1)nn2Cc1cccnc1 [Compound 38],< 0.5,> 0.5,> 0.5,> 0.5,–,–
–,CN1CCN(C2CC(n3nc(-c4cc5cc(O)ccc5[nH]4)c4c(N)ncnc43)C2)CC1 (stereo not drawn) [Compound 52],< 0.5,> 0.5,> 0.5,< 0.5,> 0.5,–
–,COc1cccc2cc(-c3nn(C4CCN(C(=O)C5CC5)CC4)c4ncnc(N)c34)[nH]c12 [Compound 66],> 0.5,> 0.5,> 0.5,> 0.5,> 0.5,–
–,Nc1ncnc2c1c(-c1cc3cc(O)ccc3[nH]1)nn2C1CC(O)C1 (stereo not drawn) [Compound 54],< 0.025,> 0.5,> 0.5,–,> 0.5,–
–,CC(=O)N1CCC(n2nc(-c3cc4ccc(O)cc4[nH]3)c3c(N)ncnc32)CC1 [Compound 65],< 0.01,< 0.05,< 0.025,< 0.025,> 0.5,–
–,CC(C)N1CCC(n2nc(-c3cc4cc(O)ccc4[nH]3)c3c(N)ncnc32)CC1 [Compound 55],< 0.5,> 0.5,> 0.5,–,> 0.5,–
–,CCOC(=O)Cn1nc(-c2cc3cc(O)ccc3[nH]2)c2c(N)ncnc21 [Compound 28],< 0.5,> 0.5,–,> 0.5,> 0.5,–
–,COc1ccc(Cl)c2cc(-c3nn(C4CCOCC4)c4ncnc(N)c34)[nH]c12 [Compound 61],< 0.025,> 0.5,> 0.5,> 0.5,> 0.5,–
–,CN1CCN(C2CCC(n3nc(-c4cc5cc(O)ccc5[nH]4)c4c(N)ncnc43)CC2)CC1 (stereo not drawn) [Compound 58],> 0.5,> 0.5,> 0.5,–,> 0.5,–
–,Nc1ncnc2c1c(-c1cc3cc(O)ccc3[nH]1)nn2C1CCC(N2CCOCC2)CC1 (stereo not drawn) [Compound 57],< 0.025,> 0.5,> 0.5,–,> 0.5,–
–,CC(C)n1nc(-c2cc3ccc(C(N)=O)cc3[nH]2)c2c(N)ncnc21 [Compound 25],< 0.5,> 0.5,–,–,–,–
–,Nc1ncnc2c1c(-c1cc3cc(O)ccc3[nH]1)nn2C1CC(=O)C1 [Compound 53],< 0.1,> 0.5,> 0.5,–,> 0.5,–
–,Nc1ncnc2c1c(-c1cc3cccc(Cl)c3[nH]1)nn2C1CCOCC1 [Compound 51],< 0.05,> 0.5,< 0.5,< 0.5,> 0.5,–
–,CC(C)[N+](C)(CCOC(=O)C1c2ccccc2Oc2ccccc21)C(C)C [propantheline],–,–,–,–,–,intermediate plasma stability
–,Nc1ncnc2c1c(-c1cc3cc(O)ccc3[nH]1)nn2C1CCCCC1 [Compound 26],< 0.01,> 0.5,< 0.5,< 0.1,> 0.5,–
–,CC(C)n1nc(-c2cc3cccc(Cl)c3[nH]2)c2c(N)ncnc21 [Compound 50],< 0.05,> 0.5,< 0.5,< 0.5,> 0.5,–
–,Nc1ncnc2c1c(-c1cc3c(Cl)cccc3[nH]1)nn2C1CCOCC1 [Compound 48],< 0.05,> 0.5,> 0.5,> 0.5,> 0.5,–
–,Nc1ncnc2c1c(-c1cc3ccc(O)cc3[nH]1)nn2C1CCOCC1 [Compound 60],< 0.1,> 0.5,< 0.1,–,> 0.5,–
